Data taken from patent publication US12096773B2, “Herbicidal composition” (ISHIHARA SANGYO KAISHA, LTD., priority 2019, dated 2024).

Key:
Type in all cases: in vivo
[1] = tested on: redroot pigweed (Amaranthus retroflexus L.); experiment: Example 9 pot test, foliar treatment, redroot pigweed
Excerpt: (§1) Upland field soil was put into a 1/1,000,000 hectare pot, and seeds of redroot pigweed (Amaranthus retroflexus L.), Kochia (Kochia scoparia L.) and Chenopodium album L. var. centrorubrum Makino were sown.

[2] = tested on: horseweed (Conyza canadensis(L.) Cron.); experiment: Example 1 pot test, foliar treatment of horseweed, visual growth inhibition; details: 21st day after foliar treatment
Excerpt: (§2) Upland field soil was put into a 1/1,000,000 hectare pot, and seeds of horseweed (Conyza canadensis(L.) Cron.) were sown.

[3] = tested on: crabgrass (Digitaria sanguinalis L.); experiment: Example 8 pot test, foliar treatment, crabgrass
Excerpt: (§3) Upland field soil was put into a 1/1,000,000 hectare pot, and seeds of goosegrass (Eleusine indica L.), barnyardgrass (Echinochloa crus-galli L.), giant foxtail (Setaria faberi Herrm.) and crabgrass (Digitaria sanguinalis L.) were sown.

[4] = tested on: common ragweed (Ambrosia elatior L.); experiment: Example 6 pot test, foliar treatment, common ragweed
Excerpt: (§4) Upland field soil was put into a 1/1,000,000 hectare pot, and seeds of common ragweed (Ambrosia elatior L.) and Kochia (Kochia scoparia L.) were sown.

[5] = tested on: horseweed (Conyza canadensis(L.) Cron.); experiment: Example 3 pot test, foliar treatment of horseweed, growth inhibition over time; details: for growth inhibition effect (in words): used alone, 19th day after the foliar treatment
Excerpt: as §2

[6] = tested on: Kochia (Kochia scoparia L.); experiment: Example 9 pot test, foliar treatment, Kochia
Excerpt: as §1

[7] = tested on: black nightshade (Solanum nigrum L.); experiment: Example 4 pot test, foliar treatment, black nightshade
Excerpt: (§5) Upland field soil was put into a 1/1,000,000 hectare pot, and seeds of black nightshade (Solanum nigrum L.), wild oat (Avena fatua L.) and dandelion (Taraxacum officinale) were sown.

[8] = tested on: Kochia (Kochia scoparia L.); experiment: Example 6 pot test, foliar treatment, Kochia
Excerpt: as §4

[9] = tested on: giant foxtail (Setaria faberi Herrm.); experiment: Example 8 pot test, foliar treatment, giant foxtail
Excerpt: as §3

[10] = tested on: dandelion (Taraxacum officinale); experiment: Example 4 pot test, foliar treatment, dandelion
Excerpt: as §5

[11] = tested on: Chenopodium album L. var. centrorubrum Makino; experiment: Example 9 pot test, foliar treatment, Chenopodium album var. centrorubrum
Excerpt: as §1

[12] = tested on: wild oat (Avena fatua L.); experiment: Example 4 pot test, foliar treatment, wild oat
Excerpt: as §5

[13] = tested on: barnyardgrass (Echinochloa crus-galli L.); experiment: Example 8 pot test, foliar treatment, barnyardgrass
Excerpt: as §3

[14] = tested on: yellow nutsedge (Cyperus esculentus L.); experiment: Example 5 pot test, foliar treatment, yellow nutsedge; details: 22nd day after foliar treatment
Excerpt: Upland field soil was put into a 1/1,000,000 hectare pot, and tubers of yellow nutsedge (Cyperus esculentus L.) were embedded.

[15] = tested on: goosegrass (Eleusine indica L.); experiment: Example 8 pot test, foliar treatment, goosegrass
Excerpt: as §3

[16] = tested on: horseweed (Conyza canadensis(L.) Cron.); experiment: Example 2 pot test, foliar treatment of horseweed, visual growth inhibition; details: 19th day after foliar treatment
Excerpt: as §2

Compound: CCn1ncc(C(=O)c2ccc(S(C)(=O)=O)c(OCCOC)c2C)c1OC(C)OC(=O)OC (stereo not drawn) [Tolpyralate, tolpyralate]
- Growth inhibition rate (%) Red root pigweed (8th day) ([1]; dose 1.5 g/ha): 23%
- Growth inhibition rate (%) Red root pigweed (8th day) ([1]; dose 3 g/ha): 25%
- Growth inhibition rate (%) Red root pigweed (8th day) ([1]; dose 5 g/ha): 30%
- Growth inhibition rate (%) ([2]; dose 15 g/ha): 33%
- Growth inhibition rate (%) ([2]; dose 30 g/ha): 30%
- Growth inhibition rate (%) ([2]; dose 50 g/ha): 30%
- Growth inhibition rate (%) Crabgrass (18th day) ([3]; dose 1.5 g/ha): 30%
- Growth inhibition rate (%) Crabgrass (18th day) ([3]; dose 3 g/ha): 40%
- Growth inhibition rate (%) Crabgrass (18th day) ([3]; dose 5 g/ha): 50%
- Growth inhibition rate (%) Common Ragweed (6th day) ([4]; dose 15 g/ha): 15%
- Growth inhibition rate (%) Common Ragweed (6th day) ([4]; dose 30 g/ha): 15%
- Growth inhibition rate (%) Common Ragweed (6th day) ([4]; dose 50 g/ha): 10%
- Growth inhibition rate (%) 19th day ([5]; dose 5 g/ha): 20%
- Growth inhibition rate (%) 27th day ([5]; dose 5 g/ha): 47%
- Growth inhibition rate (%) 42nd day ([5]; dose 5 g/ha): 23%
- Growth inhibition rate (%) 19th day ([5]; dose 10 g/ha): 17%
- Growth inhibition rate (%) 27th day ([5]; dose 10 g/ha): 37%
- Growth inhibition rate (%) 42nd day ([5]; dose 10 g/ha): 47%
- growth inhibition effect (in words) [5]: no sufficient growth inhibition effect
- Growth inhibition rate (%) Kochia (14th day) ([6]; dose 1.5 g/ha): 10%
- Growth inhibition rate (%) Kochia (14th day) ([6]; dose 3 g/ha): 23%
- Growth inhibition rate (%) Kochia (14th day) ([6]; dose 5 g/ha): 25%
- Growth inhibition rate (%) Black nightshade (27th day) ([7]; dose 15 g/ha): 72%
- Growth inhibition rate (%) Black nightshade (27th day) ([7]; dose 30 g/ha): 79%
- Growth inhibition rate (%) Black nightshade (27th day) ([7]; dose 50 g/ha): 78%
- Growth inhibition rate (%) Kochia (10th day) ([8]; dose 15 g/ha): 15%
- Growth inhibition rate (%) Kochia (10th day) ([8]; dose 30 g/ha): 20%
- Growth inhibition rate (%) Kochia (10th day) ([8]; dose 50 g/ha): 15%
- Growth inhibition rate (%) Giant foxtail (7th day) ([9]; dose 1.5 g/ha): 10%
- Growth inhibition rate (%) Giant foxtail (7th day) ([9]; dose 3 g/ha): 30%
- Growth inhibition rate (%) Giant foxtail (7th day) ([9]; dose 5 g/ha): 40%
- Growth inhibition rate (%) Dandelion (10th day) ([10]; dose 15 g/ha): 30%
- Growth inhibition rate (%) Dandelion (10th day) ([10]; dose 30 g/ha): 30%
- Growth inhibition rate (%) Dandelion (10th day) ([10]; dose 50 g/ha): 30%
- Growth inhibition rate (%) Chenopodium album L. var. centrorubrum Makino (14th day) ([11]; dose 1.5 g/ha): 10%
- Growth inhibition rate (%) Chenopodium album L. var. centrorubrum Makino (14th day) ([11]; dose 3 g/ha): 10%
- Growth inhibition rate (%) Chenopodium album L. var. centrorubrum Makino (14th day) ([11]; dose 5 g/ha): 15%
- Growth inhibition rate (%) Wild oat (21st day) ([12]; dose 15 g/ha): 10%
- Growth inhibition rate (%) Wild oat (21st day) ([12]; dose 30 g/ha): 28%
- Growth inhibition rate (%) Wild oat (21st day) ([12]; dose 50 g/ha): 30%
- Growth inhibition rate (%) Barnyardgrass (11th day) ([13]; dose 1.5 g/ha): 45%
- Growth inhibition rate (%) Barnyardgrass (11th day) ([13]; dose 3 g/ha): 45%
- Growth inhibition rate (%) Barnyardgrass (11th day) ([13]; dose 5 g/ha): 40%
- Growth inhibition rate (%) Yellow nutsedge ([14]; dose 15 g/ha): 40%
- Growth inhibition rate (%) Yellow nutsedge ([14]; dose 30 g/ha): 50%
- Growth inhibition rate (%) Goosegrass (5th day) ([15]; dose 1.5 g/ha): 15%
- Growth inhibition rate (%) Goosegrass (5th day) ([15]; dose 3 g/ha): 15%
- Growth inhibition rate (%) Goosegrass (5th day) ([15]; dose 5 g/ha): 23%
- Growth inhibition rate (%) ([16]; dose 125 g/ha): 33%
- Growth inhibition rate (%) ([16]; dose 250 g/ha): 37%

Compound: COC(=O)CCNC(=O)C(C)Sc1cc(-n2c(=O)cc(C(F)(F)F)n(C)c2=O)c(F)cc1Cl (stereo not drawn) [Tiafenacil, tiafenacil]
- Growth inhibition rate (%) Red root pigweed (8th day) ([1]; dose 1 g/ha): 50%
- Growth inhibition rate (%) ([2]; dose 25 g/ha): 33%
- Growth inhibition rate (%) ([2]; dose 50 g/ha): 40%
- Growth inhibition rate (%) Crabgrass (18th day) ([3]; dose 2.5 g/ha): 30%
- Growth inhibition rate (%) Common Ragweed (6th day) ([4]; dose 25 g/ha): 50%
- Growth inhibition rate (%) Common Ragweed (6th day) ([4]; dose 50 g/ha): 50%
- Growth inhibition rate (%) 19th day ([5]; dose 50 g/ha): 23%
- Growth inhibition rate (%) 27th day ([5]; dose 50 g/ha): 20%
- Growth inhibition rate (%) 42nd day ([5]; dose 50 g/ha): 20%
- Growth inhibition rate (%) 19th day ([5]; dose 100 g/ha): 50%
- Growth inhibition rate (%) 27th day ([5]; dose 100 g/ha): 43%
- Growth inhibition rate (%) 42nd day ([5]; dose 100 g/ha): 30%
- growth inhibition effect (in words) [5]: no sufficient growth inhibition effect
- Growth inhibition rate (%) Kochia (14th day) ([6]; dose 1 g/ha): 13%
- Growth inhibition rate (%) Kochia (14th day) ([6]; dose 2 g/ha): 23%
- Growth inhibition rate (%) Black nightshade (27th day) ([7]; dose 25 g/ha): 58%
- Growth inhibition rate (%) Kochia (10th day) ([8]; dose 25 g/ha): 30%
- Growth inhibition rate (%) Kochia (10th day) ([8]; dose 50 g/ha): 30%
- Growth inhibition rate (%) Giant foxtail (7th day) ([9]; dose 2.5 g/ha): 80%
- Growth inhibition rate (%) Dandelion (10th day) ([10]; dose 25 g/ha): 30%
- Growth inhibition rate (%) Chenopodium album L. var. centrorubrum Makino (14th day) ([11]; dose 1 g/ha): 3%
- Growth inhibition rate (%) Chenopodium album L. var. centrorubrum Makino (14th day) ([11]; dose 2 g/ha): 30%
- Growth inhibition rate (%) Barnyardgrass (11th day) ([13]; dose 2.5 g/ha): 30%
- Growth inhibition rate (%) Yellow nutsedge ([14]; dose 50 g/ha): 35%
- Growth inhibition rate (%) ([16]; dose 25 g/ha): 23%
